# In US20210246157A1, “CAMPTOTHECIN DERIVATIVES AND PREPARATION METHODS AND APPLICATIONS THEREOF” (priority 2018, published 2021):
# Columns and labels:
# [1] = tested on: colon cancer cells SW-480; assay: In vivo antitumor activity, tumor volume (Example 19); set-up: species or system mice; conditions: for Mouse Tumor Volume: average, n = 6; for inhibition rates on colon cancer cell SW-480 compared with CPT-11 (in words): dosage two-thirds of the molar fraction of CPT-11
# [2] = tested on: tumor; assay: Multi-dose in vivo antitumor activity, tumor volume (Example 20); set-up: species or system mice; conditions: for Mouse Tumor Volume: caudal vein once every 2 days; for tumor inhibition effects of the high-dose groups compared with CPT-11 (in words): same dosage (10 mg/kg), p<0.001; for dose dependence of tumor inhibition (in words): low, medium and high dose
# Protocol: The drugs are administered through the caudal veins of mice once every 2 days for a total of 7 times.
# Tumor volume is measured every three days from day 0. The maximum diameter (a) of the tumor is measured first, and then the longest radial line (b) perpendicular to the maximum diameter is measured, using mm as unit. Tumor volume is calculated according to the following formula: […]
# [3] = tested on: A549; assay: Cytotoxicity test (MTT, 72 h); conditions: Homo sapiens, A549, 72 h, read-out: 50% Inhibiting Concentration value (IC50)
# Protocol: In order to investigate the antitumor activities of the compounds, a variety of tumor cell lines for test are selected. Cells at logarithmic growth period are inoculated in a 96-well plate overnight, then drugs with a certain gradient concentrations are added, and incubation is carried out in a cell culture chamber (5% CO2, 37° C.) for 72 h.
# [4] = tested on: SKOV-3; assay: Cytotoxicity test (MTT, 72 h); conditions: Homo sapiens, SK-OV-3, 72 h, read-out: 50% Inhibiting Concentration value (IC50)
# Protocol: (§1) Cells at logarithmic growth period are inoculated in a 96-well plate overnight, then drugs with a certain gradient concentrations are added, and incubation is carried out in a cell culture chamber (5% CO2, 37° C.) for 72 h.
# [5] = tested on: PANC-1; assay: Cytotoxicity test (MTT, 72 h); conditions: Homo sapiens, PANC-1, 72 h, read-out: 50% Inhibiting Concentration value (IC50)
# Protocol: as §1
smiles,measurement,setting,value
CCc1c2c(nc3ccc(OC(=O)OCCOCCOCCOCc4cn(CCO[C@H]5O[C@@H](CO)[C@H](O)[C@@H](O)[C@@H]5O)nn4)cc13)-c1cc3c(c(=O)n1C2)COC(=O)[C@]3(O)CC [Compound 58],Mouse Tumor Volume,"[1]; day 0, 13.73 mg/kg i.v. once every three days",235.22 mm^3
same,Mouse Tumor Volume,"[1]; day 3, 13.73 mg/kg i.v. once every three days",202.08 mm^3
same,Mouse Tumor Volume,"[1]; day 6, 13.73 mg/kg i.v. once every three days",98.87 mm^3
same,Mouse Tumor Volume,"[1]; day 9, 13.73 mg/kg i.v. once every three days",118.41 mm^3
same,Mouse Tumor Volume,"[1]; day 12, 13.73 mg/kg i.v. once every three days",80.63 mm^3
same,Mouse Tumor Volume,"[1]; day 15, 13.73 mg/kg i.v. once every three days",38.37 mm^3
same,Mouse Tumor Volume,"[1]; day 18, 13.73 mg/kg i.v. once every three days",40.03 mm^3
same,Mouse Tumor Volume,"[1]; day 21, 13.73 mg/kg i.v. once every three days",7.16 mm^3
same,inhibition rates on colon cancer cell SW-480 compared with CPT-11 (in words),[1],significantly higher inhibition rates
same,Mouse Tumor Volume,"[2]; day 0, high-dose group (H) 13.73 mg/kg",120.63 mm^3
same,Mouse Tumor Volume,"[2]; day 0, low-dose group (L) 3.433 mg/kg",110.67 mm^3
same,Mouse Tumor Volume,"[2]; day 0, medium-dose group (M) 6.865 mg/kg",113.01 mm^3
same,Mouse Tumor Volume,"[2]; day 3, high-dose group (H) 13.73 mg/kg",151.62 mm^3
same,Mouse Tumor Volume,"[2]; day 3, low-dose group (L) 3.433 mg/kg",164.30 mm^3
same,Mouse Tumor Volume,"[2]; day 3, medium-dose group (M) 6.865 mg/kg",106.18 mm^3
same,Mouse Tumor Volume,"[2]; day 6, high-dose group (H) 13.73 mg/kg",206.78 mm^3
same,Mouse Tumor Volume,"[2]; day 6, low-dose group (L) 3.433 mg/kg",235.34 mm^3
same,Mouse Tumor Volume,"[2]; day 6, medium-dose group (M) 6.865 mg/kg",122.56 mm^3
same,Mouse Tumor Volume,"[2]; day 9, high-dose group (H) 13.73 mg/kg",254.08 mm^3
same,Mouse Tumor Volume,"[2]; day 9, low-dose group (L) 3.433 mg/kg",252.37 mm^3
same,Mouse Tumor Volume,"[2]; day 9, medium-dose group (M) 6.865 mg/kg",151.19 mm^3
same,Mouse Tumor Volume,"[2]; day 12, high-dose group (H) 13.73 mg/kg",317.44 mm^3
same,Mouse Tumor Volume,"[2]; day 12, low-dose group (L) 3.433 mg/kg",316.07 mm^3
same,Mouse Tumor Volume,"[2]; day 12, medium-dose group (M) 6.865 mg/kg",141.38 mm^3
same,Mouse Tumor Volume,"[2]; day 15, high-dose group (H) 13.73 mg/kg",430.78 mm^3
same,Mouse Tumor Volume,"[2]; day 15, low-dose group (L) 3.433 mg/kg",375.47 mm^3
same,Mouse Tumor Volume,"[2]; day 15, medium-dose group (M) 6.865 mg/kg",141.13 mm^3
same,Mouse Tumor Volume,"[2]; day 18, high-dose group (H) 13.73 mg/kg",519.79 mm^3
same,Mouse Tumor Volume,"[2]; day 18, low-dose group (L) 3.433 mg/kg",401.94 mm^3
same,Mouse Tumor Volume,"[2]; day 18, medium-dose group (M) 6.865 mg/kg",134.18 mm^3
same,Mouse Tumor Volume,"[2]; day 21, high-dose group (H) 13.73 mg/kg",555.67 mm^3
same,Mouse Tumor Volume,"[2]; day 21, low-dose group (L) 3.433 mg/kg",433.61 mm^3
same,Mouse Tumor Volume,"[2]; day 21, medium-dose group (M) 6.865 mg/kg",142.06 mm^3
same,increase of tumor volume compared with other groups (in words),"[2]; high-dose group, after last administration",slowest increase
same,tumor inhibition effects of the high-dose groups compared with CPT-11 (in words),[2],better than that of positive control group CPT-11
same,dose dependence of tumor inhibition (in words),[2],dose-dependent
same,IC50,[3],3040 nM
same,IC50,[4],750 nM
same,IC50,[5],3650 nM
CCc1c2c(nc3ccc(OC(=O)NCCOCc4cn(CCO[C@H]5O[C@@H](CO)[C@H](O)[C@@H](O)[C@@H]5O)nn4)cc13)-c1cc3c(c(=O)n1C2)COC(=O)[C@]3(O)CC [Compound 67],Mouse Tumor Volume,"[1]; day 0, 12.30 mg/kg i.v. once every three days",227.31 mm^3
same,Mouse Tumor Volume,"[1]; day 3, 12.30 mg/kg i.v. once every three days",126.54 mm^3
same,Mouse Tumor Volume,"[1]; day 6, 12.30 mg/kg i.v. once every three days",142.84 mm^3
same,Mouse Tumor Volume,"[1]; day 9, 12.30 mg/kg i.v. once every three days",104.75 mm^3
same,Mouse Tumor Volume,"[1]; day 12, 12.30 mg/kg i.v. once every three days",73.72 mm^3
same,Mouse Tumor Volume,"[1]; day 15, 12.30 mg/kg i.v. once every three days",43.74 mm^3
same,Mouse Tumor Volume,"[1]; day 18, 12.30 mg/kg i.v. once every three days",12.46 mm^3
same,Mouse Tumor Volume,"[1]; day 21, 12.30 mg/kg i.v. once every three days",11.38 mm^3
same,inhibition rates on colon cancer cell SW-480 compared with CPT-11 (in words),[1],significantly higher inhibition rates
same,Mouse Tumor Volume,"[2]; day 0, high-dose group (H) 12.30 mg/kg",121.62 mm^3
same,Mouse Tumor Volume,"[2]; day 0, low-dose group (L) 3.075 mg/kg",125.58 mm^3
same,Mouse Tumor Volume,"[2]; day 0, medium-dose group (M) 6.15 mg/kg",161.01 mm^3
same,Mouse Tumor Volume,"[2]; day 3, high-dose group (H) 12.30 mg/kg",91.15 mm^3
same,Mouse Tumor Volume,"[2]; day 3, low-dose group (L) 3.075 mg/kg",194.43 mm^3
same,Mouse Tumor Volume,"[2]; day 3, medium-dose group (M) 6.15 mg/kg",168.50 mm^3
same,Mouse Tumor Volume,"[2]; day 6, high-dose group (H) 12.30 mg/kg",96.67 mm^3
same,Mouse Tumor Volume,"[2]; day 6, low-dose group (L) 3.075 mg/kg",197.42 mm^3
same,Mouse Tumor Volume,"[2]; day 6, medium-dose group (M) 6.15 mg/kg",208.68 mm^3
same,Mouse Tumor Volume,"[2]; day 9, high-dose group (H) 12.30 mg/kg",103.36 mm^3
same,Mouse Tumor Volume,"[2]; day 9, low-dose group (L) 3.075 mg/kg",278.06 mm^3
same,Mouse Tumor Volume,"[2]; day 9, medium-dose group (M) 6.15 mg/kg",220.90 mm^3
same,Mouse Tumor Volume,"[2]; day 12, high-dose group (H) 12.30 mg/kg",110.74 mm^3
same,Mouse Tumor Volume,"[2]; day 12, low-dose group (L) 3.075 mg/kg",420.38 mm^3
same,Mouse Tumor Volume,"[2]; day 12, medium-dose group (M) 6.15 mg/kg",295.90 mm^3
same,Mouse Tumor Volume,"[2]; day 15, high-dose group (H) 12.30 mg/kg",133.88 mm^3
same,Mouse Tumor Volume,"[2]; day 15, low-dose group (L) 3.075 mg/kg",498.90 mm^3
same,Mouse Tumor Volume,"[2]; day 15, medium-dose group (M) 6.15 mg/kg",378.20 mm^3
same,Mouse Tumor Volume,"[2]; day 18, high-dose group (H) 12.30 mg/kg",116.64 mm^3
same,Mouse Tumor Volume,"[2]; day 18, low-dose group (L) 3.075 mg/kg",587.60 mm^3
same,Mouse Tumor Volume,"[2]; day 18, medium-dose group (M) 6.15 mg/kg",404.02 mm^3
same,Mouse Tumor Volume,"[2]; day 21, high-dose group (H) 12.30 mg/kg",103.48 mm^3
same,Mouse Tumor Volume,"[2]; day 21, low-dose group (L) 3.075 mg/kg",624.45 mm^3
same,Mouse Tumor Volume,"[2]; day 21, medium-dose group (M) 6.15 mg/kg",394.44 mm^3
same,tumor inhibition effects of the high-dose groups compared with CPT-11 (in words),[2],better than that of positive control group CPT-11
same,dose dependence of tumor inhibition (in words),[2],dose-dependent
same,IC50,[3],2420 nM
same,IC50,[4],1260 nM
same,IC50,[5],2910 nM
